Data as given in a melting point compilation (Tetko et al.; mined from patent text by program, amines drawn as free bases though some values may be those of a salt).

SMILES	melting point [°C]
O=C(c1ccc(S(=O)(=O)Cl)cc1)c1cccs1	118
C=CCc1c(O)cccc1C1=NNC(=O)CC1	197 to 200
O=C(Nc1cccc(S(=O)(=O)Nc2ccccc2)c1)c1cnn2c(C(F)F)cc(-c3ccc(C(F)(F)F)cc3)nc12	228
CC(=O)OC1(C)CCC2C3C(C#N)CC4=CC(=O)CCC4(C)C3CCC21C (stereo unspecified)	211 to 216
CCCCCCCCCCCCCCCCCCN(CCCCCCCCCCCCCCCCCC)Cc1ccc(CN(CCO)CCO)cc1	49 to 50
CCc1cccc(CC)c1NC(=O)NCC1(c2ccccc2)CCCCC1	185 to 186
CCCCNC(=O)c1ccc(-c2ccc3nnn(Cc4ccc5ncccc5c4)c3n2)cc1F	100 to 102
O=C(O)CCc1cn(Cc2cccc(C(=O)NCCc3ccccn3)c2)nc1-c1ccccc1	166 to 167
O=C(Cc1cccc(Oc2ccccc2)c1)Nc1cc(Cl)c(Cl)cc1[N+](=O)[O-]	135 to 137
O=C(SC1CCCC1C(=O)N1CCC[C@H]1C(=O)O)c1ccccc1 (stereo partly specified)	68 to 70
CO/C(=C\C=C\c1cc2cc(Cl)c(Cl)cc2[nH]1)C(=O)O	249 to 250
CCc1cccc2c(C(CO)NC=O)c[nH]c12 (stereo unspecified)	195 to 197
CCCC1CCC(C2CCc3c(c(F)c(F)c4cc(OCC)ccc34)O2)CC1 (stereo unspecified)	158
Nc1noc(C(F)(F)F)c1-c1ccccc1	91.5 to 92
COc1cc(C(=O)CCN(C)C)cc(OC)c1OC	45 to 47
CCC(CSC(=S)N(C)C)[N+](=O)[O-] (stereo unspecified)	23
Cc1c(Cc2cccc(C(F)(F)F)c2)sc2c(-c3cccc(C(=O)NCC(N)=O)c3)cccc12	187 to 188
COc1ccc(-c2oc3ccc(CC(=O)N4CCN(c5ccccc5)CC4)cc3c2SC)cc1OC	160
N#CCSC(=O)c1ccco1	76 to 78
CC(=O)N(C(=O)C(C)(C)C)C1CC(C)(C)N(OC(=O)C(C)(C)C)C(C)(C)C1	169 to 173
O=[N+]([O-])C[C@@H](O)[C@H](O)[C@@H](O)[C@@H](O)CO	89 to 91
COC(SC)C(=O)c1[nH]c2cc(Br)c(Cl)cc2c1-c1ccccc1 (stereo unspecified)	145 to 147
COc1ccc2[nH]c(CC(C)C)c(C=O)c2c1	146 to 147
C=C(C)C(=O)Oc1ccc(C(=O)c2ccccc2)cc1	69.5 to 70.5
NC(Cc1c[nH]c2c(F)cccc12)C(=O)O (stereo unspecified)	256 to 261
CC(=O)C(=Cc1cc(O)c(O)c(Cl)c1)C(C)=O	167 to 171

SMILES	melting point [°C]
c1cc(-c2ccnc3nccn23)ccn1	244 to 245
N#Cc1cc(C(=O)NNC(=O)c2occc2-c2cccc(Oc3ccccc3)c2)ccc1O	227 to 228
CC(=O)Nc1cc(Oc2ccc3c(C(=O)Nc4ccc(N5CCC[C@H](N)C5)c(C(F)(F)F)c4)cccc3c2)ncn1	218 to 228
O=Cc1c[nH]c2cccc(OCC3CO3)c12 (stereo unspecified)	108 to 110
O=C(O)CNC(=O)Cc1ccc(Cl)cc1SC(=O)c1ccccc1	158 to 159
Cc1ccsc1-c1nc(-c2c(F)cccc2Cl)nn1C	80 to 82
CCOC(=O)c1cnc(Cc2ccc(OC)c(OC)c2)c2cc(OC)c(OC)cc12	117 to 119
NCC(=O)Nc1ccc(S(=O)(=O)c2cccc(Cl)c2)cc1	195 to 196
COC(=O)CCCc1ccc(NC(=O)[C@@H](Cc2ccc(OCc3ccccc3)cn2)NC(=O)OC(C)(C)C)cc1	166 to 167
CS(=O)(=O)C(c1ccc(Cl)cc1)c1ccc(Cl)cc1	93 to 94.5
O=c1[nH][nH]c(=O)n1CCCl	192 to 193
N#Cc1ncn2c(C(F)(F)F)cc(-c3ccccc3Cl)nc12	180
CC1(C)OCc2cc(Cc3c[nH]cn3)ccc2O1	150 to 170
N#Cc1cnc2c(oc3ccccc32)c1Oc1ccc(Cl)cc1F	138 to 140
CCON=C1CN(c2c(F)c(N)c3c(=O)c(C(=O)O)cn(C4CC4)c3c2F)CC12CN(C(=O)OC(C)(C)C)C2	235 to 236
COc1ccc(-c2cc(NC(=O)Nc3ccc(Cl)cc3)on2)cc1	165 to 170
CN(c1ccc([N+](=O)[O-])cc1C(F)(F)F)c1c(Cl)c(Cl)nc(Cl)c1Cl	152 to 155
CS(=O)c1ccc(C(=O)CCCCCC#N)cc1 (stereo unspecified)	58.5 to 60.5
C#CCOc1ccc(NCc2ccccc2)c(C(=O)c2ccc(C3CC3)cc2)c1	116 to 118
CCCc1c(OCCCOc2cc(OCC(=O)OC)ccc2C(C)=O)ccc(C(C)=O)c1O	103 to 106
Cc1cc(OC/C=C(/c2ccc(Cl)cc2)c2ccc(C#CCN3CCC(CO)CC3)cc2)ccc1OCC(=O)O	94 to 104
CCOC(=O)Cc1c(C)nn(-c2ccc(OC)cc2)c1C	71 to 72
Oc1ccccc1C=NC1CCOc2ccccc21 (stereo unspecified)	123 to 126
CCCCc1cn(CC(C)C)c(=O)n1Cc1ccc(-c2ccccc2-c2nnn[nH]2)nc1	160 to 162
COc1cc(C)c(C(=O)c2c(Cl)nc(Cl)c(C(C)=O)c2C(F)(F)F)c(OC)c1OC	109 to 112
COc1cc2c(cc1OC)CN(c1nc(N)c3cc(OC)c(OC)c(OC)c3n1)CC2	204

SMILES	melting point [°C]
Fc1ccc(N2CCN(CCCN(c3ccccc3)c3ccccc3)CC2)cc1	87 to 88
COc1ccc(-c2[nH]nc3c2C(=O)c2c(NC(=O)NNC(=O)c4ccc(O)c(O)c4)cccc2-3)cc1	> 300
CCOC(=O)C1=C(N)NC(C)=CC1c1ccccc1Cl (stereo unspecified)	171
CNC1=NS(=O)(=O)N=C1NCCCCc1ccc(CN(C)C)o1	152 to 153
Cc1ccccc1OC(Cc1ccc(OCCN(C)c2nc3ccccc3o2)cc1)C(=O)O (stereo unspecified)	142 to 143
CCc1ccc2c(c1)C(=O)Nc1cccnc1N2C(=O)NCCN1CCCCC1CN(CC)CC (stereo unspecified)	124 to 126
CC(C)C[C@H](N)C(=O)NCCCCCNC(=O)OCc1ccccc1	145 to 146
CC(C)(C)NC(=O)Nc1nc2nc(N)ncc2cc1-c1c(Cl)cccc1Cl	335
Nc1ccc(C(=O)OCCOC(=O)C[C@@H](C(=O)O)n2c3ccccc3c3ccccc32)cc1	100
O=C(CCOc1cccc(-c2ccccc2)c1)NO	113 to 116
CSc1ccc(-c2nc(SC)c(C#N)c(=O)n2-c2ccc(C)cc2)cc1	196 to 198
Nc1cc(C(F)(F)F)ccc1-c1cc2ccccc2[nH]1	164 to 166
CCn1cc(CN(C(=O)C2CCCc3c(O)cccc32)c2ccc(OC)cc2)cn1 (stereo unspecified)	211 to 213
Cc1ccc(S(=O)(=O)N2CCC(c3cccc4c3CCCC(C(=O)Nc3ccc(CN(C)C5CCOCC5)cc3)=C4)CC2)cc1	175 to 176
O=C(O)Cc1cnn(-c2ccccc2)c1-c1ccccc1	107 to 110
N#CSCSc1sccc1[N+](=O)[O-]	51 to 53
COc1ccc(-c2ccc3c(c2)C2(CO3)C(=O)N(Cc3ccc(Cl)s3)c3ccccc32)cn1 (stereo unspecified)	60 to 62
CC(C)(C)C(=O)Oc1ccc(N=Nc2ccc(OC(=O)C(C)(C)C)cc2)cc1	185 to 188
O=C(O)CSc1cccc(CNC(=O)C2Cc3ccccc3N2S(=O)(=O)c2ccc(-c3cccc(C(F)(F)F)c3)cc2)c1 (stereo unspecified)	75
O=C(O)C=C1SC(=NC2CCCCC2)N(C2CCCCC2)C1=O	189 to 190
COc1ccc2c(OC(C)C)c(C(N)=O)ccc2c1	183 to 184
COc1ccc(CNc2cc3c(Nc4ccc(Cl)c(Br)c4)ncnc3cn2)cc1	207 to 210
CN(C)c1snc(OCC#CI)c1C#N	171 to 172
CC(=O)N1C(C(=O)O)CSC1C(C)c1ccc(CC(C)C)cc1 (stereo unspecified)	150 to 153
CCCNC(=O)C1=C(C(=O)Nc2cc(OC3CCCC3)c(Cl)cc2F)CCCC1	138 to 140
COCCCOc1cc(C[C@@H](CBr)C(C)C)ccc1OC	52 to 53

SMILES	melting point [°C]
O=c1ccc2cnc(Nc3ccccc3)nc2n1-c1ccccc1	300 to 302
CC1(C)CNc2nc(-c3ccncc3)cc(=O)n2C1	152 to 154
CN(C)S(=O)(=O)Nc1ccc2[nH]cc(CC#N)c2c1	147 to 150
O=C(O)c1ccc2c(Br)n[nH]c2c1	> 250
CCc1nnc(-c2ccc(F)c(F)c2Nc2ccc(I)cc2F)o1	97 to 98
C=C1C(=O)c2ccccc2OC1c1cccc([N+](=O)[O-])c1 (stereo unspecified)	131 to 132
Cc1ccc(C(N)=O)cc1F	161 to 163
COCc1nc2c(C(=O)c3cccnc3Oc3cccc(Cl)c3)ccc(OC)c2[nH]1	181 to 183
CC(=O)NC1CCc2[nH]c3ccccc3c2C1 (stereo unspecified)	170
OCCOc1nc2ncnc(NCc3ccco3)c2[nH]1	182 to 184
O=C(NC(=O)c1c(F)cccc1F)Nc1ccc(Cl)c(C(F)(F)F)c1	220
Cc1nn(-c2c(Cl)cc(C(F)(F)F)cc2Cl)nc1C#N	53
CC(C)(C)OC(=O)N1CCN(c2ccc3ncc(Br)n3n2)CC1	176 to 179
CCn1ncc2c(NCc3ccc(OC)c(OC)c3)c3ccccc3nc21	169 to 171
CCC1(CCCCN2CCN(c3ccc(F)cc3)CC2)C(=O)Nc2ccccc21 (stereo unspecified)	118 to 119
O=c1[nH]c2ccc(Br)cc2cc1Cc1ccccc1	263
Cc1cccc(C(=O)C=CN(C)C)n1	97 to 98
Brc1ccc(C2CCN(C3CCC3)CC2)nc1	122 to 124
COc1ccc(-c2nc3cnccc3[nH]2)c(OCC#N)c1	198
O=c1[nH]c2cc(Cl)ccc2n1C1CCN(C[C@H]2CO[C@@H](c3ccc(F)cc3)C2)CC1 (relative stereo)	208
O=C1CC(c2cccnc2)=NN1c1ccc(O)cc1	> 250
CC(=O)SCC(Cc1ccccc1)C(=O)Nc1cc(C(=O)O)ccc1C (stereo unspecified)	214 to 216
CCCC1=C(C(=O)OCC)C(c2cccc3nsnc23)c2c[nH]nc2N1 (stereo unspecified)	180
